Measured values from patent US8680100B2, “Sulfonylhydrazide compounds for treating proliferative disorders” (Synta Pharmaceuticals Corp., priority 2008, dated 2014).

System: HSP70
Assay: Hsp70 Activity Essay (HSP70 ELISA on lysates of MDA435 cells)
Type: cell-based
Settings: concentration that increases HSP70 to 50% of maximum increase by N′1,N′3-dimethyl-N′1,N′3-di(phenylcarbonothioyl)malonohydrazide
Protocol: Each well was plated with MDA435 cells using DMEM 10% FBS Phenol-red free medium 2.5 k/well and incubated in a 37° C./5% CO2 incubator for a minimum of 6 hours to obtain good cell adherence.
Dilutions of each test compound were prepared in DMSO and DMEM 10% FBS Phenol-red free medium. The final concentration in each well was 1250 nM, 125 nM, 12.5 nM or 1.25 nM of test compound and 0.25% DMSO. 0.25% DMSO was used as a negative control. Lysis buffer (any lysis buffer suitable for use in the Assay Designs kit, e.g., such as that described in the kit instructions) was then added (amount used is one quarter of the volume already present in each plate) and the mixtures were then shaken for 10 minutes.
150 μL of “Can Get Signal” Immunoreaction Enhancer Solution (Solution 1 for primary antibody, TOYOBO, Catalogue No. NKB-101) were added to each of a series of ELISA plates. The ELISA plates were obtained from the HSP70 ELISA Kit (catalogue number EKS-700B) purchased from Assay Designs (Ann Arbor, Mich.). After the cells were lysed, 50 μL of lysate were taken from each well and added to an ELISA plate, resulting in a 4 fold dilution of the lysate (50 μL of lysate and 150 μL of Can Get Signal solution). The plates were covered with adhesive tape and incubated overnight at 4° C.;
In the morning, the liquid was aspirated from all wells and 400 μL of Washing Buffer made from 20× concentrate provided in the ELISA Kit and distilled water were added and then removed by aspiration. The addition of Washing Buffer and aspiration was repeated four times. After the fourth wash, the plate were inverted to a paper towel and carefully patted dry. 100 μL of HSP70 antibody provided in ELISA Kit were added to each well. Each well was covered with adhesive tape and incubated for one hour at room temperature. Washing Buffer was then added followed by removal with aspiration. The addition of Washing Buffer and aspiration was repeated four times, after which the plates were inverted and patted dry. 100 μL of HSP70 conjugate (provided in the ELISA Kit) were added to the wells. Each well was then covered with adhesive tape and incubated for one hour at room temperature. Washing Buffer was then added followed by removal with aspiration. The addition of Washing Buffer and aspiration was repeated four times, after which the plates were inverted and patted dry.
100 μL of the TMB Substrate (obtained from the ELISA Kit) were added to the wells (color development was visible in 1 minute). The wells were incubated until saturated color development (usually 5-15 minutes). Stop Solution 2 (provided in the ELISA Kit) was added in the same order TMB Substrate was added. The OD450 was then obtained using a plate reader. The EC50 for the compounds was calculated using N′^1,N′^3-dimethyl-N′^1,N′^3-di(phenylcarbonothioyl)malonohydrazide on the same plate as a control (concentration that increases HSP70 to 50% of maximum increase by N′^1,N′^3-dimethyl-N′^1,N′^3-di(phenylcarbonothioyl)malonohydrazide). The EC50 for each of the compounds tested is shown in example 1.

| Compound | EC50 |
| --- | --- |
| CN(NC(=O)CS(=O)(=O)NN(C)C(=S)c1cccc(F)c1)C(=S)c1cccc(F)c1 [Compound 1, N′-(3-fluorophenylcarbonothioyl)-2-(2-(3-fluorophenylcarbonothioyl)-2-methylhydrazinyl)-N′-methyl-2-oxoethanesulfonohydrazide] | 60 nM |
| CCN(NS(=O)(=O)CC(=O)NN(C)C(=S)c1ccccc1)C(=S)c1ccccn1 [Compound 6, N′-ethyl-2-(2-methyl-2-(phenylcarbonothioyl)hydrazinyl)-2-oxo-N′-(pyridine-2-carbonothioyl) ethanesulfonohydrazide] | 25 nM |
| CN(NC(=O)CS(=O)(=O)NN(C)C(=S)c1cnccn1)C(=S)c1ccccc1 [Compound 9, N′-methyl-2-(2-methyl-2-(phenylcarbonothioyl)hydrazinyl)-2-oxo-N′-(pyrazine-2-carbonothioyl)-ethanesulfonohydrazide] | 971 nM |
| CN(NC(=O)CS(=O)(=O)NN(C)C(=S)c1cccnc1)C(=S)c1ccccc1 [Compound 10, N′-methyl-2-(2-methyl-2-(phenylcarbonothioyl)hydrazinyl)-2-oxo-N′-(pyridine-3-carbonothioyl)-ethanesulfonohydrazide] | 180 nM |
| CN(NC(=O)CS(=O)(=O)NN(C)C(=S)c1ccccc1)C(=S)c1ccncc1 [Compound 11, N′-methyl-2-(2-methyl-2-(pyridine-4-carbonothioyl)hydrazinyl)-2-oxo-N′-(phenylcarbonothioyl)ethane-sulfonohydrazide] | 1030 nM |
| CN(NC(=O)CS(=O)(=O)NN(C)C(=S)c1ccccc1)C(=S)c1cccnc1 [Compound 13, N′-methyl-2-(2-methyl-2-(pyridine-3-carbonothioyl)hydrazinyl)-2-oxo-N′-(phenylcarbonothioyl)ethane-sulfonohydrazide] | 202 nM |
| CN(NC(=O)CS(=O)(=O)NN(C)C(=S)c1ccoc1)C(=S)c1ccoc1 [Compound 17, N′-(furan-3-carbonothioyl)-2-(2-(furan-3-carbonothioyl)-2-methylhydrazinyl)-N′-methyl-2-oxoethanesulfonohydrazide] | 127 nM |
| CN(NC(=O)CS(=O)(=O)NN(C)C(=S)c1ccco1)C(=S)c1ccco1 [Compound 18, N′-(furan-2-carbonothioyl)-2-(2-(furan-2-carbonothioyl)-2-methylhydrazinyl)-N′-methyl-2-oxoethanesulfonohydrazide] | 15 nM |
| CCN(CC)C(=S)N(C)NC(=O)CS(=O)(=O)NN(C)C(=S)N(CC)CC [Compound 20, 2-(2-(2-(diethylcarbamothioyl)-2-methylhydrazinyl)-2-oxoethylsulfonyl)-N,N′-diethyl-1-methylhydrazinecarbothioamide] | 85 nM |
| CN(NC(=O)CS(=O)(=O)NN(C)C(=S)C1CC1)C(=S)C1CC1 [Compound 28, N′-(cyclopropanecarbonothioyl)-2-(2-(cyclopropanecarbonothioyl)-2-methylhydrazinyl)-N′-methyl-2-oxoethanesulfonohydrazide] | 98 nM |
| CCN(NC(=O)CS(=O)(=O)NN(CC)C(=S)C1CC1)C(=S)C1CC1 [Compound 29, N′-(cyclopropanecarbonothioyl)-2-(2-(cyclopropanecarbonothioyl)-2-ethylhydrazinyl)-N′-ethyl-2-oxoethanesulfonohydrazide] | 146 nM |
| CCN(NC(=O)CS(=O)(=O)NN(CC)C(=S)C1(C)CC1)C(=S)C1(C)CC1 [Compound 30, N′-ethyl-2-(2-ethyl-2-(1-methylcyclopropanecarbonothioyl) hydrazinyl)-N′-(1-methylcyclopropanecarbonothioyl)-2-oxoethanesulfonohydrazide] | 49 nM |
| CCN(CC)C(=S)N(C)NS(=O)(=O)CC(=O)NN(C)C(=S)C1CC1 [Compound 31, 2-(2-(2-(cyclopropanecarbonothioyl)-2-methylhydrazinyl)-2-oxoethylsulfonyl)-N,N′-diethyl-1-methylhydrazinecarbothioamide] | 174 nM |
| CN(NC(=O)CS(=O)(=O)NN(C)C(=S)C1CCC1)C(=S)C1CCC1 [Compound 32, N′-(cyclobutanecarbonothioyl)-2-(2-(cyclobutanecarbonothioyl)-2-methylhydrazinyl)-N′-methyl-2-oxoethanesulfonohydrazide] | 958 nM |
| CCOC(=S)N(C)NS(=O)(=O)CC(=O)NN(C)C(=S)C1CC1 [Compound 33, O-ethyl 2-(2-(2-(cyclopropanecarbonothioyl)-2-methylhydrazinyl)-2-oxoethylsulfonyl)-1-methylhydrazinecarbothioate] | 143 nM |
| CCN(NS(=O)(=O)CC(=O)NN(C)C(=S)C1CC1)C(=S)c1cnccn1 [Compound 35, 2-(2-(cyclopropanecarbonothioyl)-2-methylhydrazinyl)-N′-ethyl-2-oxo-N′-(pyrazine-2-carbonothioyl)-ethanesulfonohydrazide] | 1020 nM |
| CN(NS(=O)(=O)CC(=O)NN(C)C(=S)C1CC1)C(=S)c1ccccc1 [Compound 36, 2-(2-(cyclopropanecarbonothioyl)-2-methylhydrazinyl)-N′-methyl-2-oxo-N′-(phenylcarbonothioyl)ethane-sulfonohydrazide] | 76 nM |
| CN(NC(=O)CS(=O)(=O)NN(C)C(=S)C1CC1)C(=S)c1ccccc1 [Compound 39, N′-(cyclopropanecarbonothioyl)-N′-methyl-2-(2-methyl-2-(phenylcarbonothioyl)hydrazinyl)-2-oxoethanesulfonohydrazide] | 22 nM |
| CN(NS(=O)(=O)CC(=O)NN(C)C(=S)C1CCC1)C(=S)c1ccccc1 [Compound 40, 2-(2-(cyclobutanecarbonothioyl)-2-methylhydrazinyl)-N′-methyl-2-oxo-N′-(phenylcarbonothioyl)ethane-sulfonohydrazide] | 1120 nM |
| CN(NC(=O)CS(=O)(=O)NN(C)C(=S)c1ccc2c(c1)OCO2)C(=S)c1ccccc1 [Compound 42, N′-(benzo[d][1,3]dioxole-5-carbonothioyl)-N′-methyl-2-(2-methyl-2-(phenylcarbonothioyl)hydrazinyl)-2-oxoethanesulfonohydrazide] | 56 nM |
| CN(NC(=O)CS(=O)(=O)NN(C)C(=S)c1ccc(N2CCOCC2)cc1)C(=S)c1ccccc1 [Compound 43, N′-methyl-2-(2-methyl-2-(phenylcarbonothioyl)hydrazinyl)-N′-(4-morpholinophenylcarbonothioyl)-2-oxoethanesulfonohydrazide] | 74 nM |
| CSC(=S)N(C)NS(=O)(=O)CC(=O)NN(C)C(=S)c1ccccc1 [Compound 44, methyl 1-methyl-2-(2-(2-methyl-2-(phenylcarbonothioyl)hydrazinyl)-2-oxoethylsulfonyl) hydrazinecarbodithioate] | 228 nM |
| CCN(NS(=O)(=O)CC(=O)NN(C)C(=S)c1ccccc1)C(=S)N1CCOCC1 [Compound 50, N′-ethyl-2-(2-methyl-2-(phenylcarbonothioyl)hydrazinyl)-N′-(morpholine-4-carbonothioyl)-2-oxoethanesulfonohydrazide] | 114 nM |
| CN(NC(=O)CS(=O)(=O)NN(C)C(=S)N1CCCC1)C(=S)c1ccccc1 [Compound 51, N′-methyl-2-(2-methyl-2-(phenylcarbonothioyl)hydrazinyl)-2-oxo-N′-(pyrrolidine-1-carbonothioyl)-ethanesulfonohydrazide] | 57 nM |
| CN(NC(=O)CS(=O)(=O)NN(C)C(=S)N1CCCCC1)C(=S)c1ccccc1 [Compound 52, N′-methyl-2-(2-methyl-2-(phenylcarbonothioyl)hydrazinyl)-2-oxo-N′-(piperidine-1-carbonothioyl)-ethanesulfonohydrazide] | 87 nM |
| CN(NS(=O)(=O)CC(=O)NN(C)C(=S)N1CCCC1)C(=S)c1ccccc1 [Compound 53, N′-methyl-2-(2-methyl-2-(pyrrolidine-1-carbonothioyl)hydrazinyl)-2-oxo-N′-(phenylcarbonothioyl)ethane-sulfonohydrazide] | 102 nM |
| CN(NS(=O)(=O)CC(=O)NN(C)C(=S)N1CCCCC1)C(=S)c1ccccc1 [Compound 54, N′-methyl-2-(2-methyl-2-(piperidine-1-carbonothioyl)hydrazinyl)-2-oxo-N′-(phenylcarbonothioyl)ethane-sulfonohydrazide] | 108 nM |
